{"source": "paper PMC9223764", "about": "“In Vitro Selection and Characterization of HIV-1 Variants with Increased Resistance to LP-40, Enfuvirtide-Based Lipopeptide Inhibitor” (International Journal of Molecular Sciences, 2022)", "test_system": "HIV-1 NL4-3", "experiment": "In vitro selection of resistant virus, dose-escalating passages in C8166 cells", "format": "cell-based", "conditions": "1.5- to 2-fold increase per passage, start 0.5 µM T20, 0.04 µM LP-40", "description": "To determine the resistance profile of LP-40, LP-40-resistant variants were selected using a dose-escalating method. The selection for drug-resistant HIV-1NL4-3 commenced with a concentration of 0.04 µM LP-40 (Figure 2B). Finally, after 32 passages, the induced concentration of LP-40 reached 200 µM. […] As shown in passage 9 (P-9), the concentration of LP-40 was 0.3 µM, and it can be observed that isoleucine was replaced by threonine at position 37 in the gp41 NHR coding region (I37T). G86D and C87Y were observed; at position 119 (E 119 G) in the gp41 CHR coding region, glutamate was replaced by glycine; at position 126 (N 126 K), asparagine was replaced by lysine. In P-24, the concentration of LP-40 was 8 µM; I37T in the NHR coding region was still present, and A15V, A21T, and L57H were also present, and N126K at position 126 in the CHR coding region was still present. In P-26, the concentration of LP-40 was 20 µM; at L33S, position 33 in the NHR coding region, leucine was replaced by serine and I37T remained. Additionally, a combination of mutations—E109N, N113D, E119Q, D121E, N125E, S129D, H132Y, and S133N (abbreviated as […])—appeared in the coding region of CHR. At a concentration of 200 µM, in addition to L33S and I37T, D36G, V38A, V38T, N42T, and I69V appeared in the NHR coding region, and a combination of the above eight mutations still existed in the CHR coding region. […]", "note": "Where a SMILES comes first, the peptide text is derived from it. The star is where a group is joined. Palmitoyl = CCCCCCCCCCCCCCCC(=O)*"}
{"compound": "CCCCCCCCCCCCCCCC(=O)NCCCC[C@H](NC(=O)[C@H](CC(=O)O)NC(=O)[C@H](CC(C)C)NC(=O)[C@H](CCC(=O)O)NC(=O)[C@H](CC(C)C)NC(=O)[C@H](CC(C)C)NC(=O)[C@H](CCC(=O)O)NC(=O)[C@H](CCC(N)=O)NC(=O)[C@H](CCC(=O)O)NC(=O)[C@H](CC(N)=O)NC(=O)[C@H](CCCCN)NC(=O)[C@H](CCC(=O)O)NC(=O)[C@H](CCC(N)=O)NC(=O)[C@H](CCC(N)=O)NC(=O)[C@H](CC(N)=O)NC(=O)[C@H](CCC(N)=O)NC(=O)[C@H](CO)NC(=O)[C@H](CCC(=O)O)NC(=O)[C@H](CCC(=O)O)NC(=O)[C@@H](NC(=O)[C@H](CC(C)C)NC(=O)[C@H](CO)NC(=O)[C@H](Cc1c[nH]cn1)NC(=O)[C@@H](NC(=O)[C@H](CC(C)C)NC(=O)[C@H](CO)NC(=O)[C@@H](NC(=O)[C@H](Cc1ccc(O)cc1)NC(C)=O)[C@@H](C)O)[C@@H](C)CC)[C@@H](C)CC)C(N)=O", "note": "[LP-40] (Ac-YTSLIHSLIEESQNQQEKNEQELLELDK(Palmitoyl)-NH2)", "values": [{"measurement": "Induced inhibitor concentration reached after 32 passages", "result": 200, "unit": "µM"}]}
